Experimental data as given in patent US9670162B2, “Mitochondrial aldehyde dehyrogenase-2 modulators and methods of use thereof” (The Board of Trustees of the Leland Stanford Junior …, priority 2013, dated 2017).
Changes are numbered by the printed parent chain.

Tests used:
[1] = biological target: T1, human ALDH2*2 recombinant mutant enzyme (E487K) (Homo sapiens, UniProt P05091, E504K); test: ALDH2 enzymatic assay (NADH at 340 nm), recombinant mutant enzyme; type: biochemical; design: key: −: no activation or inhibition; +: activation less than control 1; ++: activation similar to control 1, within 10%; +++: activation more than control 1 and less than control (compound 161); ++++: activation similar to compound 161, within 10%; details: activation relative to benchmarks control 1 and compound 161
T1 construct: His-tag (pTrcHis vector) (N); made in house; host or cells: E. coli BL21
T1 sequence (P05091 18-517 E504K): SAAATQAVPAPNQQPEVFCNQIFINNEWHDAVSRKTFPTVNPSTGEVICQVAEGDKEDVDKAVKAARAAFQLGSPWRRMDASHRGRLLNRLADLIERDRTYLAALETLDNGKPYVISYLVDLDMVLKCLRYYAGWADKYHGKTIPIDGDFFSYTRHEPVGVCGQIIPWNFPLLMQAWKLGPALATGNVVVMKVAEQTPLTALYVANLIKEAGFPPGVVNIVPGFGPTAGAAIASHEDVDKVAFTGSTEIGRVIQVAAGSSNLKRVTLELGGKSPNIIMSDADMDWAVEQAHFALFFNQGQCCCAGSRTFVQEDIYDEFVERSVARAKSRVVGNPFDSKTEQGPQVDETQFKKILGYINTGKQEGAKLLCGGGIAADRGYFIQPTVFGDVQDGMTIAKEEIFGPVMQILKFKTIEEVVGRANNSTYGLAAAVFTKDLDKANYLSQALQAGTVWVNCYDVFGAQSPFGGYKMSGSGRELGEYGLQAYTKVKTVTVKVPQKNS
Source text: (§1) ALDH2 catalyzes the oxidative reaction of substrate acetaldehyde to acetic acid using NAD^+ as a cofactor. Enzymatic activity, or catalytic rate, of aldehyde dehydrogenase (ALDH2) can be measured spectrophotometrically at UV wavelength λ340 nm by the accumulation of reduced product NADH derived from NAD^+. […] This method is well-established in the literature [e.g. D. K. Rex, W. F. Bosron, J. E. Smialek, T. K. Li, Alcohol Clin Exp Res 9, 147 (1985)].
(§2) Full-length wild type human ALDH2 cDNA was purchased from ATCC (No. MGC-1806. GenBank ID: BC002967). The 18-amino acid mitochondria transport signal sequence was removed by PCR and cloned into the NheI/HindIII sites of a His-tag vector, pTrcHis, using standard molecular cloning techniques. The human ALDH2* cDNA construct containing the Asian E487K mutation was obtained by site-directed mutagenesis to create the E487K substitution of the wild type ALDH2. Both human clones were designed to express a recombinant protein with the His-tag at the N-terminus of the protein. For the co-expression experiments of human ALDH2 wild type and ALDH2*2 heterotetramers, a wild type ALDH2 gene and a ALDH2 E487K gene were inserted separately into the two multiple cloning sites of pETDuet-1 vector. (Novagen, Calif., USA). All the vectors were transformed into BL21 E. coli host cells and subjected to 0.5 mM IPTG induction for protein expression at 30° C. Purifications of the recombinant proteins by affinity nickel columns (HisTrap, GE Healthy Science, USA) were carried out using standard protocols according to manufacturer's instructions (Novagen, USA).
(§3) Control 1 and compound 161 are used as benchmarks and the symbols have the following representation: […]

[2] = biological target: T2, human ALDH2 wild type (Homo sapiens, UniProt P05091); test: ALDH2 enzymatic assay (NADH at 340 nm), recombinant wild type enzyme; type: biochemical; design: key: −: no activation or inhibition; +: activation less than control 1; ++: activation similar to control 1, within 10%; +++: activation more than control 1 and less than control (compound 161); ++++: activation similar to compound 161, within 10%; details: activation relative to benchmarks control 1 and compound 161
T2 construct: His-tag (pTrcHis vector) (N); made in house; host or cells: E. coli BL21
T2 sequence (P05091 18-517): T1 sequence (P05091 18-517 E504K) with K487E
Source text: as §1, §2, §3

Row | Structure (SMILES) | ALDH2 (mutant) [1] | ALDH2 (wild-type) [2]
1 | O=C1OCc2cc(CNC(=O)c3c(Cl)ccnc3OCC3CC3)ccc21 [Compound 258] | − | +
2 | COc1ccc(CNC(=O)c2c(C)ccnc2OCC2CC2)cc1F [Compound 231] | ++ | +
3 | COc1ccc(CNC(=O)c2c(Cl)cccc2Cl)cc1F [Compound 102] | ++ | ++
4 | COc1ccc(CNC(=O)c2c(Cl)ccnc2S(=O)(=O)CC(C)C)cc1F [Compound 224] | + | +
5 | COc1ccc(CNS(=O)(=O)c2c(Cl)cccc2Cl)cc1F [Compound 154] | + | +
6 | CS(=O)(=O)c1ccc(CNC(=O)c2c(Cl)ccnc2OCC2CC2)cc1F [Compound 253] | + | +
7 | O=C(NCc1ccc(F)c(F)c1)c1c(Cl)cccc1Br [Compound 153] | + | +
8 | COc1ccc(CNC(=O)c2c(NCCO)cccc2NCCO)cc1F [Compound 120] | + | −
9 | COc1ccc(CNC(=O)c2c(C(F)(F)F)ccnc2OCC2CCCC2)cc1F [Compound 230] | + | +
10 | COc1ccc(CNC(=O)c2c(Cl)cccc2OC)cc1F [Compound 138] | +++ | ++
11 | COc1ccc(CNC(=O)c2c(Cl)ccnc2OC2CCCC2)cc1F [Compound 199] | ++ | ++
12 | COc1ccc(CNC(=O)c2c(Cl)ccnc2Oc2ccccc2)cc1F [Compound 206] | + | ++
13 | COc1ccc(CNC(=O)c2c(C(F)(F)F)ccnc2OC(C)C)cc1F [Compound 227] | + | +
14 | COc1ccc(CNC(=O)c2c(Cl)cccc2Cl)cc1O [Compound 101] | + | +
15 | O=C(O)c1ccc(CNC(=O)c2c(Cl)cccc2Br)cc1 [Compound 127] | + | +
16 | COc1cc(F)c(CNC(=O)c2c(Cl)ccnc2Cl)cc1F [Compound 176] | ++ | ++
17 | CCC(C)S(=O)(=O)c1nccc(Cl)c1C(=O)NCc1ccc(OC)c(F)c1 (stereo not shown) [Compound 223] | + | +
18 | COc1ccc(CNC(=O)c2c(Cl)ccnc2CCC(C)C)cc1F [Compound 250] | + | +
19 | COc1ccc(CNC(=O)c2c(Cl)ccnc2S(=O)(=O)C(C)C)cc1F [Compound 222] | + | +
20 | COc1ccc(CNC(=O)c2c(C)ccnc2OCC(C)C)cc1F [Compound 232] | + | +
21 | COc1cccc(CNC(=O)c2c(Cl)cccc2Br)c1 [Compound 107] | + | +

Row | Structure (SMILES) | ALDH2 (mutant) [1] | ALDH2 (wild-type) [2]
22 | O=C(NCc1ccc2ocnc2c1)c1c(Cl)ccnc1OCC1CC1 [Compound 260] | − | +
23 | COc1ccc(CNC(=O)c2c(C)cccc2Br)cc1F [Compound 125] | + | +
24 | COc1ccc(CNC(=O)c2c(Cl)cccc2Cl)cc1Cl [Compound 100] | + | +
25 | O=C(NCc1ccc(OC(F)(F)F)c(F)c1)c1c(Cl)ccnc1Cl [Compound 175] | ++ | +
26 | CCSc1nccc(Cl)c1C(=O)NCc1ccc(OC)c(F)c1 [Compound 214] | ++ | ++
27 | COc1ccc(CNC(=O)c2c(Cl)ccnc2SCC(C)C)cc1F [Compound 218] | + | +
28 | COc1ccc(CNC(=O)c2c(Cl)ccnc2OCC2CC2)c(F)c1F [Compound 179] | ++ | +
29 | O=C(NCc1ccc2ncsc2c1)c1c(Cl)ccnc1OCC1CC1 [Compound 264] | − | −
30 | CCC(CC)Oc1nccc(C)c1C(=O)NCc1ccc(OC)c(F)c1 [Compound 234] | + | +
31 | COc1ccc(CNC(=O)c2c(Cl)cccc2NCC(C)O)cc1F (stereo not shown) [Compound 159] | ++ | ++
32 | O=C(NCc1ccc(F)c(F)c1)c1c(Cl)ccnc1OCC1CC1 [Compound 180] | + | +
33 | COc1ccc(CNC(=O)c2c(C)cccc2NCC(C)C)cc1F [Compound 117] | ++ | +
34 | COc1ccc(CNC(=O)c2c(Cl)ccnc2NCC2CC2)cc1F [Compound 160] | ++ | ++
35 | COc1ccc(CNC(=O)c2c(Cl)cccc2NCc2ccc(Cl)cc2)cc1F [Compound 130] | − | −
36 | CN(C)c1ccc(CNC(=O)c2c(Cl)cccc2Cl)cc1 [Compound 111] | − | −
37 | COc1ccc(CNC(=O)c2c(OCC3CC3)ccnc2OCC2CC2)cc1F [Compound 162] | ++ | +
38 | CCOc1cccc(Cl)c1C(=O)NCc1ccc(OC)c(F)c1 [Compound 139] | +++ | ++
39 | CS(=O)(=O)c1ccc(CNc2cccc(Cl)c2C(=O)NCc2ccc3c(c2)OCO3)cc1 [Compound 118] | + | +
40 | COc1ccc(CNC(=O)c2c(C)cccc2C)cc1F [Compound 119] | + | −
41 | O=C(NCc1ccc2c(c1)CCCO2)c1c(Cl)ccnc1OCC1CC1 [Compound 244] | + | ++
